We go through 11 compounds from ChEMBL document CHEMBL1129670, “Synthesis and structure-activity relationships of N-propyl-N-(4-pyridinyl)-1H-indol-1-amine (besipirdine) and related analogs as potential therapeutic agents for Alzheimer's disease” (J Med Chem, 1996).

The term IC50 denotes the concentration needed to halve the response being measured. The term ED50 denotes the midpoint of the dose-response relation.

Where only a bound is given, the exact number is not on record here.

For test [1], the system named is Mus musculus. The test is described as follows: Antagonistic activity against Scopolamine induced behavioral deficits in mice at dose 1.25 mg/kg sc; 1/6. It counts as functional.
The target of test [2] is Sodium-dependent noradrenaline transporter (Homo sapiens, UniProt P23975).
Description: Inhibitory activity against norepinephrine (NE) uptake in rat whole brain synaptosome preparation
The test system of test [3] is Mus musculus. Put plainly: Antagonistic activity against Scopolamine induced behavioral deficits in mice at dose 2.5 mg/kg sc. It is filed as functional. The note with it: route subcutaneous.
The target of test [4] is Muscarinic acetylcholine receptor. It is filed as cell membranes, Membrane.
Description: Inhibition of [3H]quinuclidinyl benzilate (QNB) binding from rat forebrain membranes in the presence of Zn
The species entered for test [5] is Mus musculus. The test is described as follows: animal or person.
Description: Effective dose against administration in mice
Test [6] has as its target Muscarinic acetylcholine receptor. It counts as cell membranes, Membrane. This is another data set of the same source.
Description: Inhibition of [3H]quinuclidinyl benzilate (QNB) binding from rat forebrain membranes in the absence of Zn
Test [7] is filed under the species Mus musculus. The test is described as follows: Antagonistic activity against Scopolamine induced behavioral deficits in mice; 0/9. It is filed as functional.
The target in test [8] is T1, Adrenergic receptor alpha-2 (Rattus norvegicus, UniProt P22086+P19328+P22909).
T1 sequence (P22086 whole entry): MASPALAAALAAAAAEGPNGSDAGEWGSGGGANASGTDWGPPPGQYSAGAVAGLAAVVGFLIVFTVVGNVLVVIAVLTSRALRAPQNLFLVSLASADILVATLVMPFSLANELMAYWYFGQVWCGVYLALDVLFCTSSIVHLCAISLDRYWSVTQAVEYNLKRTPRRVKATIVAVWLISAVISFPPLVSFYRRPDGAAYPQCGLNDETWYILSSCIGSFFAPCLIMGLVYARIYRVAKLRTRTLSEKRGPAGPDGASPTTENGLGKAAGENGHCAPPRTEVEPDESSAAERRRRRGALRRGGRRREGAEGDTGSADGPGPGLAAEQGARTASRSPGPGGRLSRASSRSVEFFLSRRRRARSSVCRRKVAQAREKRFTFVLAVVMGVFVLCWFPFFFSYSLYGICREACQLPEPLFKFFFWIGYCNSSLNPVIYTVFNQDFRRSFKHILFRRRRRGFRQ
T1 sequence (P19328 whole entry): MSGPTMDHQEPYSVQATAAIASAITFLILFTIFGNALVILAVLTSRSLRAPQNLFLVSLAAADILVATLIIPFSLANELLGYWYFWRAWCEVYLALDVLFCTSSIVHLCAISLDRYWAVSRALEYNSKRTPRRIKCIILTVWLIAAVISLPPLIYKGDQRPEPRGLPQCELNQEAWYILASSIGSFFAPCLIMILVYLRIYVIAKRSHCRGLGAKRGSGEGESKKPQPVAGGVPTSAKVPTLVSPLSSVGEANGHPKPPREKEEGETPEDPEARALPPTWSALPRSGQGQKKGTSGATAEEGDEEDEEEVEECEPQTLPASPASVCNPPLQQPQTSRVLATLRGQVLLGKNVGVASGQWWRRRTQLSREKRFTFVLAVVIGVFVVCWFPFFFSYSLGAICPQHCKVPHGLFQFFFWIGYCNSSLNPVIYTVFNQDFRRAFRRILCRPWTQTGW
T1 sequence (P22909 whole entry): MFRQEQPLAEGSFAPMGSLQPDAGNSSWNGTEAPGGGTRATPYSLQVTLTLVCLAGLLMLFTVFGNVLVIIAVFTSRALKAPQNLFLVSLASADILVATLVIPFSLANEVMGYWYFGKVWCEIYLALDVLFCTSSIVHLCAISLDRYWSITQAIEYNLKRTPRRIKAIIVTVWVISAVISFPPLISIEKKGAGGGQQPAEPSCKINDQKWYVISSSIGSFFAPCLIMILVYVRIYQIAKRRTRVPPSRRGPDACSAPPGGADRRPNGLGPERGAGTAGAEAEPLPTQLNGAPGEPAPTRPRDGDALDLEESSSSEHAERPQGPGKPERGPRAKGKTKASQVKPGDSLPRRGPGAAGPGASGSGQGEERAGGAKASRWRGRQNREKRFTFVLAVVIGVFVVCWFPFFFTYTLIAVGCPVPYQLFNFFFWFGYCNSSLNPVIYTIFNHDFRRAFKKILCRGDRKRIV
Put plainly: Inhibitory activity against [3H]clonidine binding to Alpha-2 adrenergic receptor in rat cortex.

The target in test [9] is T2, Acetylcholinesterase (Rattus norvegicus, UniProt P37136).
T2 sequence (P37136 whole entry): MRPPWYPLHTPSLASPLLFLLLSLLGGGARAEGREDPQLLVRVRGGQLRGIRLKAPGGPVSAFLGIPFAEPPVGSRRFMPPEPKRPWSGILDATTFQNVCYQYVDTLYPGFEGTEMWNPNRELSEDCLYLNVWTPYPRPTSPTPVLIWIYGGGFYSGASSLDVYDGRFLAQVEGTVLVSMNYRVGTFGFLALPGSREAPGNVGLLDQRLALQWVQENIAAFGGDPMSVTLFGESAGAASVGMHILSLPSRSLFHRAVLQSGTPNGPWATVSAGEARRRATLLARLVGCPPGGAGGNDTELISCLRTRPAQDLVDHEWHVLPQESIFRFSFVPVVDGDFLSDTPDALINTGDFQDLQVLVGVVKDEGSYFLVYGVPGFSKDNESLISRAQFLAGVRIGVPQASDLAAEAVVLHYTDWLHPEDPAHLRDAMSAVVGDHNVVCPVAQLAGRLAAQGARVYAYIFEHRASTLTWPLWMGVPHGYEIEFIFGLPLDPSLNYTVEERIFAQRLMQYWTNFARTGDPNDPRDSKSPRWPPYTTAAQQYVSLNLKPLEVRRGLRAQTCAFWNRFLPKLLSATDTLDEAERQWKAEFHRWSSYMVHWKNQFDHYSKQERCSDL
Description: Inhibitory activity against acetylcholinesterase in rat striatal preparation

In test [10] the test system is Mus musculus. Put plainly: Antagonistic activity against Scopolamine induced behavioral deficits in mice at dose 0.16 mg/kg sc. The conditions noted are these: route subcutaneous. It is filed as functional.
The species named for test [11] is Mus musculus. Put plainly: Antagonistic activity against Scopolamine induced behavioral deficits in mice; 1/10. It counts as functional.
Test [12] deals with Mus musculus. The test is described as follows: Antagonistic activity against Scopolamine induced behavioral deficits in mice at dose 0.63 mg/kg sc. It is filed as functional. The note with it: route subcutaneous.
Test [13] is filed under the species Mus musculus.
For test [14], the system named is Mus musculus. Put plainly: Antagonistic activity against Scopolamine induced behavioral deficits in mice at dose 0.04 mg/kg sc. It counts as functional. The note with it: route subcutaneous.
For test [15], the species on record is Mus musculus. Put plainly: Antagonistic activity against Scopolamine induced behavioral deficits in mice. It counts as functional.
For test [16], the species on record is Mus musculus. The test is described as follows: Antagonistic activity against Scopolamine induced behavioral deficits in mice; 2/3. It counts as functional.
Test [17] has as its system Mus musculus. Put plainly: Antagonistic activity against Scopolamine induced behavioral deficits in mice at dose 1.0 mg/kg sc. It counts as functional. The note with it: route subcutaneous.
The test system of test [18] is Mus musculus. Put plainly: Antagonistic activity against Scopolamine induced behavioral deficits in mice at dose 0.3 mg/kg sc. It counts as functional. The note with it: route subcutaneous.
The subject of test [19] is Mus musculus. The test is described as follows: Antagonistic activity against Scopolamine induced behavioral deficits in mice at dose 1.25 mg/kg sc; 0/6. It is filed as functional.
The subject of test [20] is Mus musculus. The test is described as follows: Antagonistic activity against Scopolamine induced behavioral deficits in mice at dose 5.0 mg/kg sc; 1/3. It counts as functional.
The species entered for test [21] is Mus musculus. The test is described as follows: Antagonistic activity against Scopolamine induced behavioral deficits in mice; 1/3. It counts as functional.
Test [22] has as its system Mus musculus. Put plainly: Antagonistic activity against Scopolamine induced behavioral deficits in mice at dose 5.0 mg/kg sc; 2/6. It counts as functional.
The species entered for test [23] is Mus musculus. The conditions noted are these: dose 0.63 mg/kg; route subcutaneous.
The species named for test [24] is Mus musculus. The note with it: dose 5 mg/kg; route subcutaneous.
Test [25] is filed under the species Mus musculus. Put plainly: Antagonistic activity against Scopolamine induced behavioral deficits in mice; 3/9. It is filed as functional.
The species entered for test [26] is Mus musculus. The conditions noted are these: dose 2.5 mg/kg; route subcutaneous.
For test [27], the system named is Mus musculus. The test is described as follows: Antagonistic activity against Scopolamine induced behavioral deficits in mice at dose 20 mg/kg sc. It is filed as functional. The conditions noted are these: route subcutaneous.
Test [28] has as its system Mus musculus. Put plainly: Antagonistic activity against Scopolamine induced behavioral deficits in mice at dose 10 mg/kg sc. The conditions noted are these: route subcutaneous. It is filed as functional.

Sodium-dependent noradrenaline transporter, sequence (P23975 whole entry): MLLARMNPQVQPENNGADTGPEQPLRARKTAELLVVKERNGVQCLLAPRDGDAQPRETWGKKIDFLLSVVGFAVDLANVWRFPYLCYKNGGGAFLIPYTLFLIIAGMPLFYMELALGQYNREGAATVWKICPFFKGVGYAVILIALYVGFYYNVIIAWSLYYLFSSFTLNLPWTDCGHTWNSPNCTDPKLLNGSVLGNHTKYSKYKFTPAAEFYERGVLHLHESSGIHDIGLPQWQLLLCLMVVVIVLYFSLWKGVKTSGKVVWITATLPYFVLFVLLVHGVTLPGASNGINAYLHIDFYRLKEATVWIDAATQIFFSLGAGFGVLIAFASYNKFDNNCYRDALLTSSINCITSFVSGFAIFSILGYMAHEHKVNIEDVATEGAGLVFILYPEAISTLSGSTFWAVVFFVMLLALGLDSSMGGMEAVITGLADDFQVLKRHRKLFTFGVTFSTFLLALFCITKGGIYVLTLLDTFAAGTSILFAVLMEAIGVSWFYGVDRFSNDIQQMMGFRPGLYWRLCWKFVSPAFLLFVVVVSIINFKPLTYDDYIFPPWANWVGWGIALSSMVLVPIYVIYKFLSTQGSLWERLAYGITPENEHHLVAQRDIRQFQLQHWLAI

In turn, `CCCN(c1ccnc2cc(Cl)ccc12)n1ccc2ccccc21.O=C(O)/C=C/C(=O)O` came in with an Antagonism in test [1] of 1. Further, the values for the IC50 in test [2], in test [4] and in test [6] were 6.9 µM, 180 µM and greater than 300 µM, respectively. In test [3], this compound returned a Response of 29%. For the same compound, the ED50 in test [5] is greater than 20 mg/kg.

As to `CCCN(c1ccncc1)n1cc(CC)c2ccccc21`, the IC50 in test [2] amounted to 2.1 µM; in test [4] it was 0.71 µM; in test [6] it was 2.7 µM; in [8] it was 3.6 µM; in [9] it was 20 µM. The ED50 in [5] worked out at 0.44 mg/kg. The Antagonism in test [7] is on record as 0.

For `CCCN(c1ccncc1)n1cc(C(C)=O)c2ccccc21`, the IC50 in test [2] was determined as 3.3 µM; in test [4] it was 2.7 µM; in test [6], 29 µM; in [9], 58 µM. The compound also displayed an ED50 in test [5] of 5 mg/kg. The Response in test [10] is 20%. Moreover, the Antagonism in test [11] is recorded as 1.

For the compound `CCCN(c1cc(Cl)ncn1)n1ccc2ccccc21`, the IC50 is 2.6 µM in [2], greater than 1000 µM in test [4], greater than 1000 µM in test [6] and greater than 100 µM in test [9]. The Response in [12] and in test [3] was 33% throughout. In [13], the Antagonism is 3. Moreover, the ED50 in test [5] was greater than 20 mg/kg.

On to `CCCCN(c1ccncc1)n1ccc2ccccc21`, for which the IC50 in test [2] came out at 0.43 µM; in [4] it was 1.5 µM; in test [6], 4 µM; in test [8], 0.63 µM; in test [9], 62 µM. Further, it took a dose of 5.4 mg/kg to reach the 50% effect level in test [5] (ED50). The same compound displayed a Response in test [14] of 23%. Also, the Agonism in test [15] came out at 1.

Consider `c1ccc2c(c1)ccn2Cc1ccncc1`, for which the IC50 is greater than 20 µM in test [2], 84 µM in [4] and 223 µM in [6]. This compound also showed an Antagonism in test [16] of 2. Moreover, the Response in test [17] stood at 20%; in test [18], 33%.

`CCCN(c1ccncc1)n1ncc2ccccc21.O=C(O)/C=C/C(=O)O`: the IC50 in [2] was 1.4 µM; in test [4] it was 4 µM; in test [6], 13 µM; in test [9], greater than 100 µM. Further, in test [5], it took a dose of 11 mg/kg to reach the 50% effect level (ED50). In addition, in test [19], the Antagonism turned out to be 0.

Compound `CCCC(c1ccncc1)n1ccc2ccccc21` (stereo not drawn) displayed an Antagonism in test [20] of 1. Further, the results for the IC50 in [2], in test [4] and in test [6] were 0.67 µM, 29 µM and 142 µM, respectively. Moreover, in test [18], the Response came out at 20%.

Turning to `CN(c1ccncc1)n1ccc2cc(Br)ccc21`, the IC50 in test [2] is 13 µM; in [4] it was 2.5 µM; in test [6], 4.6 µM; in test [9] it was greater than 100 µM. In test [5], this compound came in with an ED50 greater than 20 mg/kg. In addition, in [17], the Response turned out to be 44%. The compound further returned an Antagonism in test [21] of 1.

As for `CCCN(c1ccncc1)n1ccc2cc(Br)ccc21`, the IC50 is 2.6 µM in test [2], 1.6 µM in test [4], 4.4 µM in test [6] and greater than 100 µM in [9]. Further, in test [22], the Antagonism is given as 2. The Response in [23] and in [24] was 33% in each case. Moreover, in test [5], the ED50 was greater than 20 mg/kg.

Compound `C#CCN(c1ccncc1)n1ccc2ccccc21` displayed an Antagonism in test [25] of 3. Further, the half-inhibitory concentration (IC50) in test [2] is 0.68 µM; in test [4], 2.5 µM; in test [6], 11 µM; in test [8], 0.5 µM; in test [9], greater than 100 µM. Also, the Response in test [26] is listed as 21%; in test [27] it was 27%; in test [28], 21%. The compound further yielded an ED50 in test [5] of 3.9 mg/kg.
